# Data as given in article PMC8400955 (Pharmaceuticals, 2021).
# Key:
# [1] = Single-dose PK and bioavailability in dogs; format: in vivo; details: beagle, dog, plasma; for bioavailability: PO 6 mg/kg/day vs IV 2 mg/kg/day; for AUC(0-t) / Cmax / Tmax: single dose
# Experimental: […] […] All groups had one male and one female animal. Plasma samples were collected at various timepoints, through to 24 h post-dose, and analyzed for ZB716.
# Four-to-six-week-old Sprague Dawley rats (Crl: CD (SD)) (SPF/VAF) were purchased from Beijing Vital River Laboratory Animal Technology, Co. Ltd.). Six-month-old beagle dogs were purchased from Beijing Marshall Biotechnology Co. Ltd. Animals were quarantined/acclimated for 2–6 weeks prior to dose initiation. Both Sprague Dawley rats and beagle dogs were given oral administration of ZB716 (20% PG, 5% Solutol, and 75% of 40% HP-β-CD in water) at different dose levels. After treatment with the test articles, whole blood was collected from each study animal by puncture of the tail vein (0.4 mL of whole blood from rats) and/or the peripheral vein (0.6 mL of whole blood from dogs) into tubes containing K2EDTA at each timepoint: pre-dose, and 0.5, 1, 2, 4, 8, and 24 h post-dose. The plasma samples were divided into 2 aliquots (approximately equal in volume) and stored frozen at −75 ± 15 °C within 2 h of the collection until analysis at Pharmaron, China.
# The stock solution of ZB716 (5.0 mg/mL) and ZB716-d6 (1 mg/mL) in ACN:DI Water = 1:1 was prepared and stored at −20 ± 5 °C. The desired serial concentrations of working reference analyte solutions were achieved by diluting a stock analyte solution with 50% acetonitrile (0.1% formic acid) in water solution. The bioanalytical LC–MS/MS method was validated for quantitative determination of ZB716 in Sprague Dawley rat plasma and beagle dog plasma, with acceptable selectivity, sensitivity, calibration curve, precision, and accuracy. This method is applicable for the determination of ZB716 in Sprague Dawley rat plasma and beagle dog plasma, with a lower limit of quantification of 20.0 ng/mL, and an upper limit of quantification of 10,000 ng/mL.
# Five microliters of diluted supernatant was injected into the LC–MS/MS system (Shimadzu LC30AD HPLC system with a SynergiTM 4 μm Fusion-RP 80 Å (50 × 2 mm) column using gradient elution and a Triple Quad 5500 mass spectrometer) for quantitative analysis. The mobile phases used were 0.1% formic acid in deionized water and 0.1% formic acid in acetonitrile. The pharmacokinetic parameters T1/2 (the biological half-life), Cmax (maximal concentration), Tmax (time at which Cmax is observed), and AUC (area under the plasma concentration–time curve) were calculated from the plasma concentration versus time data using WinNonlin (Phoenix^TM, version 8.1, Mountain View, CA, USA). All PK studies were conducted by Pharmaron in Beijing, China.
# [2] = Plasma protein binding by equilibrium dialysis, human; format: in vitro ADME; details: plasma (EDTA-K2 as anticoagulant)
# Experimental: (§1) The in vitro binding of ZB716 to plasma proteins was determined by equilibrium dialysis technique in mouse, rat, dog, monkey, and human plasma (EDTA-K2 as anticoagulant), over the concentration range of 0.1–10 μM. The free concentration of ZB716 was below the lower limit of quantitation at 0.1, 1, and 10 μM in human, monkey, dog, rat, and mouse plasma.
# (§2) The equilibrium dialysis method was used to investigate the in vitro binding of ZB716 to human, monkey, dog, rat, and mouse plasma proteins. The dialysis phosphate buffer solution (100 mM, pH 7.4) and plasma samples containing 0.1, 1, and 10 μM of ZB716 were added to separate chambers of dialysis wells of the HTDialysis device. The dialysis plate was placed in an incubator at 37 °C with 5% CO2 at approximately 100 rpm for 6 h. After incubation, the seal was removed, and 50 μL each of post-dialysis samples was pipetted from both the buffer and plasma chambers into fresh 96-well plates. The samples were analyzed via UPLC–MS/MS. The bound fraction, unbound fraction, recovery (%), and remaining (%) were calculated by Equations (2)–(5):%Unbound = (Conc.buffer chamber/Conc.plasma chamber) × 100(2) %Bound = 100% − %Unbound (3) %Recovery = (Conc.buffer chamber + Conc.plasma chamber)/Conc.Total sample × 100 (4) %Remaining = Conc.6h/Conc.0h × 100 (5)
# human plasma proteins = experiment: as above; format: in vitro ADME; details: for Remaining: 6 h
# Experimental: as §1, §2
# [3] = Plasma protein binding by equilibrium dialysis, dog; format: in vitro ADME; details: plasma (EDTA-K2 as anticoagulant)
# Experimental: as §1, §2
# dog plasma proteins = experiment: as above; format: in vitro ADME; details: for Remaining: 6 h
# Experimental: as §1, §2
# [4] = Metabolic stability in mouse hepatocytes; format: in vitro ADME
# Experimental: Hepatocytes of humans (#X008001), dogs (#M00205), rats (#M00005), and mice (#M005052) were purchased from BioIVT, NY, USA. Monkey hepatocytes were procured from RILD, Shanghai, China. The metabolic stability of ZB716 in human, monkey, dog, rat and mouse hepatocytes was investigated by incubating ZB716 with human, monkey, dog, rat, and mouse hepatocytes (0.5 × 10^6 cells/mL), or with incubation medium only.
# parent disappearance vs. incubation time curve.
# Scaled-up Clint = kV/N × Scaling Factor
# metabolite formed during the reaction.
# CYP2A6 = CYP2A6 (Homo sapiens, UniProt P11509); experiment: CYP phenotyping, recombinant CYP2A6
# CYP2A6, sequence (P11509 whole entry): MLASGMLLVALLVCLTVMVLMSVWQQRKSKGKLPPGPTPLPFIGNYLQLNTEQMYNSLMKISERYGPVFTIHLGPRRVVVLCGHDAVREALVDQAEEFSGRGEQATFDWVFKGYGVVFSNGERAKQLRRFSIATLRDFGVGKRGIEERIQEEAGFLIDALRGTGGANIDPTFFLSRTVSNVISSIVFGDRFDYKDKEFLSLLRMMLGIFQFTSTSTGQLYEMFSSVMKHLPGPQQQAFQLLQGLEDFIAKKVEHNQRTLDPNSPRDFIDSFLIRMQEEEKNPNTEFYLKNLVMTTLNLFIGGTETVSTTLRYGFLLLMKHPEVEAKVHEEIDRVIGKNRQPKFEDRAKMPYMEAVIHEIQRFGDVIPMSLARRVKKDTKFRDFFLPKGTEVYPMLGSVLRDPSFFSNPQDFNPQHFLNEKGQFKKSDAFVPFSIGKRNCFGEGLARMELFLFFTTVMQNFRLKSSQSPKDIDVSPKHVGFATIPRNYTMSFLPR
smiles,measurement,setting,value
"C[C@]12CC[C@@H]3c4ccc(B(O)O)cc4C[C@@H](CCCCCCCCC[S+]([O-])CCCC(F)(F)C(F)(F)F)[C@H]3[C@@H]1CC[C@@H]2O (some centres unmarked) [ZB716, fulvestrant-3-boronic acid]",bioavailability,"[1]; female, F",6.74%
same,AUC(0-t),"[1]; female, IV 2 mg/kg/day, F",4310 ng·h/mL
same,Cmax,"[1]; female, IV 2 mg/kg/day, F",2710 ng/mL
same,Tmax,"[1]; female, IV 2 mg/kg/day, F",5 min
same,AUC(0-t),"[1]; female, PO 6 mg/kg/day, F",872 ng·h/mL
same,Cmax,"[1]; female, PO 6 mg/kg/day, F",213 ng/mL
same,Tmax,"[1]; female, PO 6 mg/kg/day, F",30 min
same,AUC(0-t),"[1]; female, PO 30 mg/kg/day, F",3460 ng·h/mL
same,Cmax,"[1]; female, PO 30 mg/kg/day, F",964 ng/mL
same,Tmax,"[1]; female, PO 30 mg/kg/day, F",60 min
same,AUC(0-t),"[1]; female, PO 100 mg/kg/day, F",5840 ng·h/mL
same,Cmax,"[1]; female, PO 100 mg/kg/day, F",957 ng/mL
same,Tmax,"[1]; female, PO 100 mg/kg/day, F",30 min
same,bioavailability,"[1]; male, M",6.18%
same,AUC(0-t),"[1]; male, IV 2 mg/kg/day, M",3030 ng·h/mL
same,Cmax,"[1]; male, IV 2 mg/kg/day, M",2160 ng/mL
same,Tmax,"[1]; male, IV 2 mg/kg/day, M",5 min
same,AUC(0-t),"[1]; male, PO 6 mg/kg/day, M",563 ng·h/mL
same,Cmax,"[1]; male, PO 6 mg/kg/day, M",157 ng/mL
same,Tmax,"[1]; male, PO 6 mg/kg/day, M",30 min
same,AUC(0-t),"[1]; male, PO 30 mg/kg/day, M",5520 ng·h/mL
same,Cmax,"[1]; male, PO 30 mg/kg/day, M",988 ng/mL
same,Tmax,"[1]; male, PO 30 mg/kg/day, M",240 min
same,AUC(0-t),"[1]; male, PO 100 mg/kg/day, M",7500 ng·h/mL
same,Cmax,"[1]; male, PO 100 mg/kg/day, M",1140 ng/mL
same,Tmax,"[1]; male, PO 100 mg/kg/day, M",120 min
same,"recovery at 6 h, 0.1 μM","[2]; pH 7.4, 0.1 μM",< 69.1%
same,"recovery at 6 h, 1 μM","[2]; pH 7.4, 1 μM",< 64%
same,"recovery at 6 h, 10 μM","[2]; pH 7.4, 10 μM",< 74.7%
same,Bound,human plasma proteins; 0.1 μM,>95.7%
same,Unbound,human plasma proteins; 0.1 μM,<4.33%
same,Remaining,human plasma proteins; 0.1 μM,57.0 ± 7.7%
same,Bound,human plasma proteins; 1 μM,>99.6%
same,Unbound,human plasma proteins; 1 μM,<0.392%
same,Remaining,human plasma proteins; 1 μM,57.9 ± 4.9%
same,Bound,human plasma proteins; 10 μM,>99.96%
same,Remaining,human plasma proteins; 10 μM,74.5 ± 3.4%
same,"recovery at 6 h, 0.1 μM","[3]; pH 7.4, 0.1 μM",< 63.5%
same,"recovery at 6 h, 1 μM","[3]; pH 7.4, 1 μM",< 64.9%
same,"recovery at 6 h, 10 μM","[3]; pH 7.4, 10 μM",< 68.7%
same,Bound,dog plasma proteins; 0.1 μM,>95.6%
same,Remaining,dog plasma proteins; 0.1 μM,39.1 ± 1.8%
same,Bound,dog plasma proteins; 1 μM,>99.6%
same,Unbound,dog plasma proteins; 1 μM,<0.373%
same,Remaining,dog plasma proteins; 1 μM,53.2 ± 4.4%
same,Bound,dog plasma proteins; 10 μM,>99.96%
same,Unbound,dog plasma proteins; 10 μM,<0.0412%
same,Remaining,dog plasma proteins; 10 μM,65.2 ± 4.3%
same,half-life at 1 μM,[4]; read-out: Estimated In Vitro t1/2,34.4 ± 0.6 min
same,hepatocyte CLint at 1 μM,[4]; read-out: In Vitro Clint,40.3 ± 0.7 µL/min/1e6 cells
same,CLint scaled at 1 μM,[4]; read-out: Scaled-Up Clint,476 ± 8 mL/min/kg
same,half-life at 2 µM,CYP2A6; human,16.6 ± 0.6 min
same,Clint,"CYP2A6; recombinant CYP2A6, 2 µM ZB716",0.836 ± 0.028 µL/min/pmol CYP
